# Results: patent US5989844A, “Method for evaluating drug metabolism and reagent compositions therefor” (Pfizer Inc., priority 1997, dated 1999)
# B1: CYP2C19 0.1 mg/ml: CYP2C19 microsomes at 0.1 mg/ml, tested alone (protein, UniProt P33261 1-490, looked up)
# Cytochrome P450 2C19: MDPFVVLVLCLSCLLLLSIWRQSSGRGKLPPGPTPLPVIGNILQIDIKDVSKSLTNLSKIYGPVFTLYFGLERMVVLHGYEVVKEALIDLGEEFSGRGHFPLAERANRGFGIVFSNGKRWKEIRRFSLMTLRNFGMGKRSIEDRVQEEARCLVEELRKTKASPCDPTFILGCAPCNVICSIIFQKRFDYKDQQFLNLMEKLNENIRIVSTPWIQICNNFPTIIDYFPGTHNKLLKNLAFMESDILEKVKEHQESMDINNPRDFIDCFLIKMEKEKQNQQSEFTIENLVITAADLLGAGTETTSTTLRYALLLLLKHPEVTAKVQEEIERVIGRNRSPCMQDRGHMPYTDAVVHEVQRYIDLIPTSLPHAVTCDVKFRNYLIPKGTTILTSLTSVLHDNKEFPNPEMFDPRHFLDEGGNFKKSNYFMPFSAGKRICVGEGLARMELFLFLTFILQNFNLKSLIDPKDLDTTPVVNGFASVPPFYQLCFIPV
# modifications: microsomes
# notes: CYP2C19 microsomes at 0.1 mg/ml, tested alone
# Legend:
# [1] = biological target: CYP2D6 (Homo sapiens, UniProt P10635); assay: CYP2D6-mediated metabolism: substrate disappearance in PM human liver microsome HHM-0116 supplemented with recombinant CYP2D6-expressing microsome; details: microsomes, 1 μM substrate, 60 min incubation
# Chain of CYP2D6 (P10635 whole entry): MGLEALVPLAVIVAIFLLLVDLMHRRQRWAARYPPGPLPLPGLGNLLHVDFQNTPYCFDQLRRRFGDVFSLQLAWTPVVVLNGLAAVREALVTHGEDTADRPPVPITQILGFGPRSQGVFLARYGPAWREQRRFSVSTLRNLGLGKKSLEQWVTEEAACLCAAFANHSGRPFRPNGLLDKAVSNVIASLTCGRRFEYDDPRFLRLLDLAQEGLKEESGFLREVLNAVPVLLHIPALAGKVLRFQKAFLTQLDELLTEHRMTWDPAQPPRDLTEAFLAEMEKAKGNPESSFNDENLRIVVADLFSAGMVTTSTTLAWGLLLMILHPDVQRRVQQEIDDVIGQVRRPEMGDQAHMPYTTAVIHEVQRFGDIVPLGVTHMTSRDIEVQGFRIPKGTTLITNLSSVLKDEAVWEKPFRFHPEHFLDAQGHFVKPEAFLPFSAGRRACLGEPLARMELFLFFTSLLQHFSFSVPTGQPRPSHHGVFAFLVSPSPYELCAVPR
# Experimental: a) CYP2D6-mediated metabolism
# The pH of the solution was 7.4. The incubation temperature was 37° C. At specific incubation times (0, 5, 10, 30, 60 minutes), an aliquot of 100 μl was withdrawn from the reaction mixture and mixed with 1 ml of ACN containing 5 ng/ml (2S, 3S)-3-(2-methoxybenzylamino)-2-diphenylmethyl-1-azabicyclo[2,2,2] octane as an internal standard. Protein was subsequently precipitated by centrifugation (1,800×g for 10 min). and the resulting supernatant was taken, evaporated and dissolved in 100 μl of 60% ACN. Concentrations of substrates and products in the sample solutions were analyzed with a Sciex API-III mass spectrometer linked with a Hewlett-Packard HP1090 HPLC system. A volume of 10 μl of the sample portion was injected to the HPLC system equipped with a Tosoh ODS-80Ts column manufactured by Tosoh (3.2×15 mm). Mobile phases comprised 80% acetonitrile(ACN) and 10 mM ammonium acetate and the elution was isocratic with a flow rate of 0.2 mlimin. The effluent from the HPLC column was introduced into the atmospheric pressure ionization source via an ion spray interface with splitting the effluent. The ion spray interface was operated at 5000 volt in a positive ion mode. Collision gas (argon) thickness (CGT), curtain gas (N2) and Neblizer gas (air) was 300×10^13 molecules/cm^2, 0.6 liter/minute and 40 PSI, respectively. The Q2 rod offset voltage (R2) was 0-6 V. The compounds were detected by multiple reacting monitoring (MRM) detection in the API-III mass spectrometer. The MS-MS were generally the combination of precursor and product. […] Concentrations of the remaining substrates in each sample solution (%-remaining) were plotted against the desired incubation times (FIG. 1(a), (c), (e), (g), (i), (k)).
# [2] = biological target: CYP2C19 (Homo sapiens, UniProt P33261); assay: S-mephenytoin hydroxylation activity; format: biochemical; details: 100 μM S-(+)-Mephenytoin, pH 7.4, 37 °C
# Experimental: As used herein, "S-mephenytoin hydroxylation activity" means the activity of 4'hydroxylation of S-mephenytoin as measured by HPLC-MS.
# The reagent compositions of this invention, PM microsome (i.e., HHM0102), normal human liver microsomes mixture (i.e., HLM mix-A, and HLM mix-B, and (CYP2C19 0.1 mg/ml) were tested for hydroxymephenytoin generation activity which is a known property of microsome obtained from a normal metabolizer.
# HHM-0102 microsomes (1.0 mg protein/ml) were mixed with a total of 0.3 mg protein/ml of CYP2C19 microsomes and the control microsomes with various ratios. […] Hydroxy mephenytoin which was generated in samples were analyzed by LC/MS/MS.
Molecule,"half-life at 1 µM ([1]; pH 7.4, T1/2, HHM0116 + 0 mg/ml 2D6 (control microsome)) [min]","half-life at 1 µM ([1]; pH 7.4, T1/2, HHM0116 + 0.1 mg/ml recombinant CYP2D6 microsome) [min]","half-life at 1 µM ([1]; pH 7.4, T1/2, HHM0116 + 0.5 mg/ml recombinant CYP2D6 microsome) [min]","half-life at 1 µM ([1]; pH 7.4, T1/2, HHM0116 + 1.0 mg/ml recombinant CYP2D6 microsome) [min]",S-mephenytoin hydroxylation Activity [2] [pmol/min/mg]
"CC(C)NCC(O)COc1cccc2ccccc12 (centres unmarked) [Propranolol, propranolol]",301,70.2,15,5.4,–
B1,–,–,–,–,18.110
